# Test results reported in ChEMBL document CHEMBL5550220, “Discovering New Metallo-Deubiquitinase CSN5 Inhibitors by a Non-Catalytic Activity Assay Platform” (J Med Chem, 2024).
# pIC50: −log10 of the molar value. Activity calls are given as the source filed them. The rule behind the calls is not given here.
# How the values were obtained:
# HepG2 [1] = assay: Antiproliferative activity against human HepG2 cells assessed as inhibition of cell proliferation measured after 3 days by MTT assay; type: functional, cell-based; conditions: HepG2, 72 h
# HCT-116 [2] = assay: Antiproliferative activity against human HCT-116 cells assessed as inhibition of cell proliferation measured after 3 days by MTT assay; type: functional, cell-based; conditions: HCT-116, 72 h
# MDA-MB-231 [3] = assay: Downregulation of PD-L1 protein expression in human MDA-MB-231 cells at 3 to 30 uM by Western blot analysis; type: functional, cell-based; conditions: dose 3-30 µM
# [4] = target: T1, COP9 signalosome complex subunit 5 (Homo sapiens, UniProt Q92905); assay: (§1) Inhibition of N-terminal His6-tagged CSN5 (2 to 257 residues) (unknown origin) transfected in Transetta cells preincubated with N-(2-(3-(3',6'-dihydroxy-3-oxo-3H-spiro[isobenzofuran-1,9'-xanthen]-5-yl)thioureido)ethyl)-3-(2-(5-methyl-[1,1'-biphenyl]-2-yl)-1H-pyrrolo[2,3-b]pyridin-3-yl)propanamide probe followed by compound addition by fluorescence based microplate reader assay; type: cell-based
# Target sequence in this assay (Q92905 2-334 limits assumed, one chain of several): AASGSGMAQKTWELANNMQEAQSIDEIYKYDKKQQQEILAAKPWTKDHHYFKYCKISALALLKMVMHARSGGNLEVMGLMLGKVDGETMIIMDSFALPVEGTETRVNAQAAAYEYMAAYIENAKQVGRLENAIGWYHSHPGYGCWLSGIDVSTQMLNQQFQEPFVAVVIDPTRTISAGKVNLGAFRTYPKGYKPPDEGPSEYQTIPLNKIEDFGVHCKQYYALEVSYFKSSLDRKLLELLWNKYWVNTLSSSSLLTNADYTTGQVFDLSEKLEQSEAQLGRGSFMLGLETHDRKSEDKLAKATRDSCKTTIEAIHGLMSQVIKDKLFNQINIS
# [5] = target: T1, COP9 signalosome complex subunit 5; assay: Inhibition of CSN5 in human HCT-116 cells assessed as increase in NEDD8-Cul1 level by Western blot analysis; type: cell-based; conditions: dose 3-30 µM
# Target sequence in this assay (Q92905 2-334 limits assumed, one chain of several): as above
# [6] = target: T1, COP9 signalosome complex subunit 5; assay: Binding affinity to N-terminal His6-tagged CSN5 (2 to 257 residues) (unknown origin) transfected in Transetta cells assessed as decrease in tryptophan fluorescence intensity incubated for 10 mins by fluorescence quenching based microplate reader analysis; type: cell-based; conditions: dose 0-100 µM
# Target sequence in this assay (Q92905 2-334 limits assumed, one chain of several): as above
# MDA-MB-231 [7] = assay: Antiproliferative activity against human MDA-MB-231 cells assessed as inhibition of cell proliferation measured after 3 days by MTT assay; type: functional, cell-based; conditions: MDA-MB-231, 72 h
# [8] = target: T1, COP9 signalosome complex subunit 5; assay: as §1, with “for 20 mins followed by” for “with”, “probe” for “probe followed by compound”, “addition and measured after 1 hr” for “addition”; type: cell-based
# Target sequence in this assay (Q92905 whole entry, the tested form may be a part, one chain of several): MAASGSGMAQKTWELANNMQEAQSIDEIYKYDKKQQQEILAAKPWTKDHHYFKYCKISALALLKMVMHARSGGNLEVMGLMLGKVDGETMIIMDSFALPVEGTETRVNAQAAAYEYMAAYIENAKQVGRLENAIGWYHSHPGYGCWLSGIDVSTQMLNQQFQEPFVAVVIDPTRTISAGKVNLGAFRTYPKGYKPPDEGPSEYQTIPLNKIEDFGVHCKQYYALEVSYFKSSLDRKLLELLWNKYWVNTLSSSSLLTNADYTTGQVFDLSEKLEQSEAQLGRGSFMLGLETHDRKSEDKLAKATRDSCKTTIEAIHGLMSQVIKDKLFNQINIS
# [9] = target: T1, COP9 signalosome complex subunit 5; assay: Inhibition of CSN5 in human MDA-MB-231 cells assessed as increase in NEDD8-Cul1 level by Western blot analysis; type: cell-based; conditions: dose 3-30 µM
# Target sequence in this assay (Q92905 2-334 limits assumed, one chain of several): as the sequence (Q92905 2-334 limits assumed, one chain of several) above
# [10] = target: T1, COP9 signalosome complex subunit 5; assay: as §1, with “for 20 mins followed by” for “with”, “probe” for “probe followed by compound”, “addition and measured after 1 hr” for “addition”, “polarization” for “based microplate reader”
# Target sequence in this assay (Q92905 whole entry, the tested form may be a part, one chain of several): as the sequence (Q92905 whole entry, the tested form may be a part, one chain of several) above
# HCT-116 [11] = assay: Downregulation of PD-L1 protein expression in human HCT-116 cells at 30 uM by Western blot analysis; type: functional, cell-based
# [12] = target: T1, COP9 signalosome complex subunit 5; conditions: dose 50.0 µM
# Target sequence in this assay (Q92905 2-334 limits assumed, one chain of several): as the sequence (Q92905 2-334 limits assumed, one chain of several) above
# Description: Thermal stabilization of N-terminal His6-tagged CSN5 (2 to 257 residues) (unknown origin) transfected in Transetta cells assessed as change in melting temperature at 50 uM by SYPRO orange dye based thermal shift assay
# A-375 = assay: Antiproliferative activity against human A-375 cells assessed as inhibition of cell proliferation measured after 3 days by MTT assay; type: functional, cell-based; conditions: A-375, 72 h
# [13] = target: T1, COP9 signalosome complex subunit 5; assay: Inhibition of CSN5 in human HepG2 cells assessed as increase in neddylation of cullin1 at 3 uM by Western blot analysis; type: cell-based
# Target sequence in this assay (Q92905 2-334 limits assumed, one chain of several): as above
# [14] = target: T1, COP9 signalosome complex subunit 5; assay: Inhibition of CSN5 in human HCT-116 cells assessed as increase in neddylation of cullin1 at 3 uM by Western blot analysis; type: cell-based
# HCT-116 [15] = assay: Upregulation of PD-L1 level in human HCT-116 cells at 3 uM by Western blot analysis; type: functional, cell-based
# HepG2 [16] = assay: Effect on CSN5 protein level in human HepG2 cells at 3 uM by Western blot analysis; type: functional, cell-based
# HepG2 [17] = assay: Effect on PD-L1 level in human HepG2 cells at 0.3 to 3 uM by Western blot analysis; type: functional, cell-based; conditions: dose 0.3-3 µM
# [18] = target: T1, COP9 signalosome complex subunit 5; assay: Binding affinity to N-terminal His6-tagged Zn-II deficient CSN5 (2 to 257 residues) (unknown origin) transfected in Transetta cells assessed as tryptophan fluorescence change at 0 to 100 uM incubated for 10 mins by fluorescence quenching based microplate reader analysis; type: cell-based; conditions: dose 0-100 µM
# [19] = target: T1, COP9 signalosome complex subunit 5; assay: Inhibition of CSN5 in human HepG2 cells assessed as increase in neddylation of cullin1 by Western blot analysis; type: cell-based; conditions: dose 0.3-3 µM
# HCT-116 [20] = assay: Effect on CSN5 protein level in human HCT-116 cells at 3 uM by Western blot analysis; type: functional, cell-based
# HCT-116 [21] = assay: Upregulation of PD-L1 level in human HCT-116 cells at 30 uM by Western blot analysis; type: functional, cell-based
# HCT-116 [22] = assay: Upregulation of PD-L1 protein expression in human HCT-116 cells at 30 uM by Western blot analysis; type: functional, cell-based
SMILES,pIC50 (HepG2 [1]),pIC50 (HCT-116 [2]),pIC50 (MDA-MB-231 [7]),pIC50 [8],pIC50 [10],pIC50 (A-375),other results
COc1ccc2cc([C@@H](C)c3sc(N)nc3C(=O)O)ccc2c1,4.28,4.39,4.17,4.77,4.57,–,Activity (MDA-MB-231 [3]): Active; inhibition [4]: Active; inhibition [5]: Dose-Dependent Effect; Activity [6]: Dose-Dependent Effect; inhibition [9]: Dose-Dependent Effect; Activity (HCT-116 [11]): Active
Cc1ccc(CCc2sc(N)nc2C(=O)O)o1,–,–,–,3.79,3.73,–,–
CC(C)(C)c1ccc(CCc2sc(N)nc2C(=O)O)cc1,< 4.00,4.28,4.28,4.53,4.72,–,–
CC(C)=CC[C@H](O)C1=CC(=O)c2c(O)ccc(O)c2C1=O [ALKANNIN],5.31,6.08,–,6.10,6.57,5.85,ΔTm [12]: 1 °C
CC(Cc1ccc(C(C)(C)C)cc1)c1sc(N)nc1C(=O)O (stereo unspecified),4.41,4.62,4.64,4.72,4.90,–,inhibition [4]: Active; inhibition [5]: Dose-Dependent Effect; Activity [6]: Dose-Dependent Effect; inhibition [9]: Dose-Dependent Effect
Nc1nc(C(=O)O)c(CCc2cccc3ccccc23)s1,4.51,4.75,4.65,4.55,4.52,–,–
CC(C)=CC[C@@H](O)C1=CC(=O)c2c(O)ccc(O)c2C1=O [SHIKONIN],5.53,6.28,–,6.39,6.72,6.15,inhibition [13]: Active; inhibition [14]: Active; Activity (HCT-116 [15]): Active; Activity (HepG2 [16]): inactive; inhibition [4]: Active; ΔTm [12]: 1 °C; Activity [6]: Dose-Dependent Effect; Activity (HepG2 [17]): inactive; Activity [18]: inactive; inhibition [19]: Dose-Dependent Effect; Activity (HCT-116 [20]): inactive
CC(C)c1ccc(Cc2sc(N)nc2C(=O)O)cc1,–,–,–,4.10,3.96,–,–
Nc1nc(C(=O)O)c(CCc2ccc(Br)cc2)s1,< 4.00,4.26,4.47,4.19,4.18,–,–
CC(C)=CC[C@@H](OC(=O)C(C)C)C1=CC(=O)c2c(O)ccc(O)c2C1=O [ISOBUTYLSHIKONIN],5.06,5.76,–,5.93,6.22,5.77,–
CC(C)c1ccc(CC(C)c2sc(N)nc2C(=O)O)cc1 (stereo unspecified),4.43,4.79,4.85,4.83,4.87,–,Activity [6]: Dose-Dependent Effect
CC(C)Cc1sc(N)nc1C(=O)O,–,–,–,< 3.52,< 3.52,–,–
CC(=O)O[C@H](CC=C(C)C)C1=CC(=O)c2c(O)ccc(O)c2C1=O [ACETYLSHIKONIN],5.19,5.45,–,5.97,6.37,5.72,–
CCCCc1sc(N)nc1C(=O)O,–,–,–,< 3.52,< 3.52,–,–
CC(C)=CCCC1=CC(=O)c2c(O)ccc(O)c2C1=O [DEOXYSHIKONIN],4.98,4.81,–,5.32,5.60,5.17,inhibition [13]: Active; inhibition [14]: Active; Activity (HCT-116 [15]): inactive; Activity (HepG2 [16]): inactive; Activity [6]: Dose-Dependent Effect; Activity (HCT-116 [20]): inactive
Nc1nc(C(=O)O)c(CCc2ccc(Cl)cc2Cl)s1,< 4.00,4.25,< 4.00,4.38,4.38,–,–
O=C1C=CC(=O)c2c(O)ccc(O)c21 [NAPHTHAZALIN],5.30,5.98,–,6.04,6.77,5.05,–
Cc1ccc(-c2[nH]c3ncccc3c2CCC(=O)N2CCOC[C@H]2c2nc3ccccc3[nH]2)c(-c2ccccc2)c1,–,–,–,–,–,–,Activity (HCT-116 [21]): Active; Activity (HCT-116 [22]): Active
CC(C)(C)c1ccc(Cc2sc(N)nc2C(=O)O)cc1,–,–,–,4.08,4.04,–,–
